Reference: US9597391B2, “Cyclic-dinucleotides and its conjugates as adjuvants and their uses in pharmaceutical compositions” (HELMHOLTZ_ZENTRUM FUER INFEKTIONSFORSCHUNG GMBH, priority 2005, dated 2017)
Entries after “also recorded” stand apart in the source; their conditions may differ.

How the values were obtained:
BALB/c (H-2d) mice [1] = experiment: β-gal-specific IgA in lung and vaginal lavages of immunized mice; format: in vivo; conditions: for β-gal-specific IgA in lung lavages: i.n. immunization, day 38, versus β-gal alone (FIG. 4, FIG. 5)
Procedure: Experimental protocol: at day 38, mice were sacrificed and the final sampling was performed. Vaginal and lung lavages were obtained by flushing the organs with 1 ml of PBS supplemented with 50 mM EDTA, 0.1% BSA, and 10 mM PMSF. Lavages were then centrifuged to remove debris (10 min at 3000×g), and supernatant fluids were stored at −20° C. To determine the concentration of total IgA present in the lung and vaginal lavages, serial dilutions of the corresponding samples were incubated in microtiter plates that were previously coated with goat anti-mouse IgA (Sigma Chemie), as capture antibodies (100 μl/well). Serial dilutions of purified mouse IgA (Sigma Chemie) were used to generate a standard curve.
To investigate the capacity of c-diGMP and c-diAMP, respectively, to stimulate mucosal responses against antigens co-administered by the i.n. and s.c. route, the production of β-gal-specific IgA in lung was analyzed (FIG. 5 for c-diAMP and FIG. 4 for c-diGMP) from immunized animals, immunized according to the protocol described in Example 2.

BALB/c (H-2d) mice [2] = experiment: Isotype ELISA of β-gal-specific IgG1 and IgG2a in sera of vaccinated mice; format: in vivo
Procedure: Isotyp ELISA: 96-well Nunc-Immuno MaxiSorp assay plates (Nunc, Roskilde, Denmark) were coated with 100 μl of β-gal (Boehringer, Mannheim, Germany) at 5 μg/ml in 0.05 M carbonate buffer (pH 9,6) per well. Serial two-fold dilutions of sera or lavages in PBS with 1% BSA and 0.05% Tween 20 were added (100 μl/well), and plates incubated for 2 h at 37° C. After washing, biotin-conjugated rat anti-mouse IgG1 or IgG2a (Pharmingen, Hamburg, Germany) were added to determine IgG subclasses. Plates were incubated for an additional 1 h at 37° C. After four washes, 100 μl of peroxidase-conjugated streptavidin (Pharmingen) was added to cells and plates incubated at 37° C. for 30 min. After four washes, reactions were developed with ABTS in 0.1 M citrate-phosphate buffer (pH 4.35) containing 0.01% H2O2. To determine the concentration of IgG subclasses in serum, standard curves were obtained by coating the wells with an isotype-specific goat anti-mouse IgG, and then by incubating with purified mouse IgG1 or IgG2 antibodies (Dianova, Hamburg, Germany).
The pattern of the different subclasses of the β-gal antigen-specific IgG isotypes present in the sera of vaccinated mice is shown in FIG. 12. […] The protocol for vaccination was identical to the protocol described in Example 3. […] The data represents the average titer of a group of 5 animals.

[3] = tested on: re-stimulated spleen cells; experiment: Cytokines in supernatants of in vitro re-stimulated spleen cells by cytometric bead array; format: in vivo, mice; conditions: for IL-6 secretion of re-stimulated spleen cells: versus β-Gal without adjuvant (FIGS. 8 and 9); for IFNγ secretion of re-stimulated spleen cells: versus β-Gal without adjuvant, c-diGMP data from i.n. immunized mice (FIG. 7, FIG. 9)
Procedure: Experimental protocol: Spleens from mucosal (i.n.) or parenteral (s.c.) vaccinated mice were removed and pooled for analysis of cellular immune responses. The protocol for vaccination was identical to the protocol described in Example 2. Cells were grown in RPMI 1640 supplemented with 10% fetal calf serum, 100 U/ml of penicillin, 50 μg/ml of streptomycin, 5×10^−5 M 2-mercaptoethanol and 1 mM L-glutamine (GIBCO BRL, Karlsruhe, Germany) and maintained at 37° C. in a humidified 5% CO2 atmosphere. Spleen cell suspensions were adjusted to 5×10^6 cells/ml in complete medium, cells were seeded with 100 μl per well in a flat-bottomed 96-well microtiter plate (Nunc) and plates were incubated for 4 days in the presence of different concentrations of soluble β-gal.
To characterize the type of Th response stimulated following immunization, the content of IFNγ, IL-6, IL-10, IL-12 (for c-diAMP only), MCP-1, and TNFα was measured in supernatants from in vitro re-stimulated spleen cells (FIG. 7 and 8 for c-diGMP and FIG. 9 for c-diAMP) by the Cytometric Bead Array. Culture supernatants from proliferating cells were collected on days 2 and 4, and stored at −70° C. Determination of IFNγ, TNFα, IL-6, IL-10, IL-12, and MCP-1 was performed by cytometric bead array (CBA) analysis using the commercial kit from BectonDickinson, according to the manufacturer's instructions or with commercially available ELISA systems. For CBA analysis, a standard curve was generated for each cytokine by using the corresponding recombinant murine cytokines (Pharmingen). Probes were incubated at room temperature for additional 2h. The probes were analyzed subsequently by flow cytometry as described in the protocol of BD.

[4] = tested on: primary bone marrow-derived murine dendritic cells; experiment: In vitro stimulation of primary bone marrow-derived murine dendritic cells, flow cytometry of surface markers; format: cell-based, BALB/c mice; conditions: 10 ng/ml c-diGMP, flow cytometry after 12 h and 24 h, versus no stimulus (FIG. 1)
Procedure: Experimental protocol: primary bone marrow-derived dendritic cell cultures were obtained from BALB/c mice following in vitro maturation of precursors in the presence of recombinant GM-CSF (5×104 U/ml), according to established protocols, e.g. Link, C., etal, 2004, Eur. J. Immuol, 34(3):899-907. Mature dendritic cells were stimulated with 10 ng/ml of E. coli lypopolysaccharide (LPS) or 10 ng/ml c-diGMP. The stimulation of cells was analyzed by flow cytometry to assess the expression of surface markers which are relevant for their antigen presentation capacity after 12 h and 24 h, respectively.
In order to identify compounds which may have potential as adjuvants for in vivo applications in the field of vaccines, a first in vitro screening based on the use of primary cultures of bone marrow-derived dendritic cells was established. Dendritic cells were selected since they represent the most efficient antigen presenting cells and they play a key role in primary immune responses. In fact, they represent the only cell type able to activate resting T cells initiating primary immune responses in vivo. […] At different time intervals, samples were taken, stained with fluorescent-labeled antibodies specific for cellular markers critical for the antigen presenting capacities of dendritic cells, and analyzed by flow cytometry.

[5] = i.n., average titer of 5 animals (FIG. 12A)
[6] = s.c., average titer of 5 animals (FIG. 12B)

SMILES: Nc1ncnc2c1ncn2[C@@H]1O[C@@H]2COP(=O)(O)O[C@H]3[C@@H](O)[C@H](n4cnc5c(N)ncnc54)O[C@@H]3COP(=O)(O)O[C@H]2[C@H]1O [c-diAMP, cyclic bis(3′-5′)diadenylic acid]
- β-gal specific sIgA expression in vaginal lavage (BALB/c (H-2d) mice [1]; c-diAMP as adjuvant, i.n. (FIG. 5)): detectable
- β-gal-specific IgA in lung lavages (BALB/c (H-2d) mice [1]): significant increase
- β-gal specific IgG1 in sera, intranasal (BALB/c (H-2d) mice [2]; [5]): strongly increased
- β-gal specific IgG2a in sera, intranasal (BALB/c (H-2d) mice [2]; [5]): strongly increased
- β-gal specific IgG1 in sera, subcutaneous (BALB/c (H-2d) mice [2]; [6]): strongly increased
- β-gal specific IgG2a in sera, subcutaneous (BALB/c (H-2d) mice [2]; [6]): strongly increased
- type of Th response induced ([3]; mice immunized with β-gal plus adjuvant): balanced Th1/Th2 response
- TNFα secretion of re-stimulated spleen cells ([3]; versus β-Gal without adjuvant (FIG. 9)): enhanced secretion
- IL-6 secretion of re-stimulated spleen cells [3]: same results
- IFNγ secretion of re-stimulated spleen cells [3]: enhanced secretion

SMILES: Nc1nc2c(ncn2[C@@H]2O[C@@H]3COP(=O)(O)O[C@H]4[C@@H](O)[C@H](n5cnc6c(=O)[nH]c(N)nc65)O[C@@H]4COP(=O)(O)O[C@H]3[C@H]2O)c(=O)[nH]1 [c-diGMP, cyclic bis(3′-5′)diguanylic acid]
- expression of CD40 on dendritic cells [4]: up-regulated
- β-gal-specific IgA in lung lavages (BALB/c (H-2d) mice [1]): higher
- β-gal-specific IgA in lung lavages (BALB/c (H-2d) mice [1]; listed as c-dGMP): significant increase
- β-gal specific sIgA expression in vaginal lavage, s.c. route (BALB/c (H-2d) mice [1]; s.c. route (not shown)): does not lead to an enhanced expression
- IL-6 secretion of re-stimulated spleen cells [3]: same results
- IFNγ secretion of re-stimulated spleen cells [3]: strong expression; also recorded: enhanced secretion
- Th1 like cytokines in antigen restimulated spleen cells ([3]; β-gal/c-diGMP versus β-gal alone (FIG. 8B)): high expression
